Assay results reported in article PMC5011961, “In vitro antimicrobial activities of animal-used quinoxaline 1,4-di-N-oxides against mycobacteria, mycoplasma and fungi” (BMC Veterinary Research, 2016).
Converted amounts (≈) assume the structure as drawn. Read-outs that look alike come from different tables or passages of the source.

How the values were obtained:
[1] = system: M. hyopneumoniae; test: Antimycoplasma assay, MIC in microtiter plates; settings: Mesomycoplasma hyopneumoniae
Description: (§1) Briefly, 96-well microtiter Sensititre plates containing stabilized and freeze-dried antimicrobials were used. Three wells on each plate were set as antimicrobial free growth control. Freshly thawed mycoplasma isolates with known titers were diluted in liquid medium until the number of organisms reached 10^4 color changing units/mL. 50 μL of the diluted culture was transferred into each well of the Sensititre plates. […] The plates were sealed using an adhesive foil and incubated at 36 °C for 14 days. The growth of M. hyopneumoniae was observed daily when the color of the medium changed from red to yellow (phenol red indicator), and the initial and final MICs were recorded.

[2] = system: M. gallisepticum; test: Antimycoplasma assay, MIC in microtiter plates; settings: Mycoplasmoides gallisepticum
Description: as §1

[3] = system: IBDV; test: Antiviral assay (CPE/MTT; adsorption inhibition, infection inhibition, virucidal); type: cell-based, infectious bursal disease virus; set-up: key to IC50: “--” represent not detected owing to the low inhibition ratio; settings: IBDV, mean±SD of four experiments
[4] = system: Marc-145 cells; test: Cytotoxicity assay (MTT); settings: for TC50: Marc-145, 72 h, MTT, mean ± SD, n = 4; for MNTC: Marc-145, maximum non-cytotoxic concentration (90 % cell viability)
[5] = system: Candida parapsilosis; test: Antifungal assay, macrobroth 2-fold serial dilution MIC; settings: Lodderomyces parapsilosis
[6] = system: M. bovis ATCC 19210; test: microbe, parasite or virus in culture; type: cell-based, Mycobacterium bovis; settings: Mycobacterium tuberculosis variant bovis, ATCC19210
[7] = system: Candida tropicalis; test: Antifungal assay, macrobroth 2-fold serial dilution MIC
[8] = system: M. tuberculosis complex; test: Combination susceptibility assay (checkerboard method), overall statements; type: cell-based; settings: combined with rifampicin
[9] = system: Candida albicans; test: Antifungal assay, macrobroth 2-fold serial dilution MIC
[10] = system: Mycoplasma gallisepticum; test: Combination susceptibility assay (checkerboard method); type: cell-based; settings: combined with tetracyclines (tetracycline and doxycycline), M. gallisepticum
[11] = system: Trichophyton rubrum; test: Antifungal assay, macrobroth 2-fold serial dilution MIC
[12] = system: PK-15 cells; test: Cytotoxicity assay (MTT); settings: for TC50: PK-15, 72 h, MTT, mean ± SD, n = 4; for MNTC: PK-15, maximum non-cytotoxic concentration (90 % cell viability)
[13] = system: Cryptococcus neoformans; test: Antifungal assay, macrobroth 2-fold serial dilution MIC
[14] = system: Microsporum canis; test: as above
[15] = system: DF-1 cells; test: Cytotoxicity assay (MTT); settings: for TC50: DF-1, 72 h, MTT, mean ± SD, n = 4; for MNTC: DF-1, maximum non-cytotoxic concentration (90 % cell viability)
[16] = system: mycoplasma; test: Antimycoplasma assay, overall statements; type: cell-based; settings: range over Mycoplasma gallisepticum and Mycoplasma hyopneumoniae strains
[17] = system: PRRSV; test: Antiviral assay (CPE/MTT; adsorption inhibition, infection inhibition, virucidal); type: cell-based, porcine reproductive and respiratory syndrome virus; set-up: key to IC50: “--”represent not detected owing to the low inhibition ratio; settings: PRRSV, mean±SD of four experiments
[18] = system: Aspergillus fumigatus; test: Antifungal assay, macrobroth 2-fold serial dilution MIC
[19] = system: PPV; test: Antiviral assay (CPE/MTT; adsorption inhibition, infection inhibition, virucidal); type: cell-based, porcine parvovirus; set-up: key to IC50: “--” represent not detected owing to the low inhibition ratio; settings: PPV, mean±SD of four experiments
[20] = system: M. tuberculosis H37Ra ATCC 25177; test: Microdilution alamar blue assay (MABA)
Description: Briefly, each of the above Mycobacterium strains was cultured at 37 °C in Middlebrook 7H9 broth supplemented with 0.2 % glycerol and 10 % Oleic Acid-Albumin-Dextrose-Catalase (Sigma, St Louis, MO, USA) until logarithmic growth was reached. About 6 × 10^6 CFU/mL inoculum of Mycobacterium strain was then added to the two fold serially diluted drug samples. The final concentration of DMSO in all assays was 2.5 % or less and this dilution also served as solvent control. The samples were assayed in triplicate. All tests were carried out in sterile flat bottom 96-well microplates. Each microplate was incubated for 5 days at 37 °C in a sealed plastic CO2-permeable bag. After 7 days of incubation, 32 μL of a mixture of freshly prepared Alamar Blue solution and 20 % sterile Tween-80 at 1:1 (v/v) were added to the growth-control well. The microplates were incubated at 37 °C for 24 h. […] A well-defined pink color was interpreted as positive bacterial growth, whereas a blue color indicated an absence of growth.

[21] = system: Epidermophyton floccosum; test: Antifungal assay, macrobroth 2-fold serial dilution MIC
[22] = system: M. tuberculosis H37Rv ATCC 27294; test: Microdilution alamar blue assay (MABA); type: cell-based, Mycobacterium tuberculosis; settings: Mycobacterium tuberculosis, read-out: MIC
[23] = system: M. tuberculosis H37Rv ATCC 27294; set-up: method as in PMID 14561478; settings: previous report; cited from earlier work
[24] = M. gallisepticum BG44T (10^4ccu/mL)
[25] = M. gallisepticum MG-HS (10^6ccu/mL)
[26] = M. gallisepticum PG31 (10^8 ccu/mL)
[27] = Candida tropicalis, C. tropicalis 2.2735, deep fungi
[28] = Candida tropicalis, C. tropicalis 7349, deep fungi
[29] = A. fumigatus 3.5301, deep fungi
[30] = A. fumigatus 3.5352, deep fungi

Row | SMILES | MIC [1] | MIC [2, 24] | MIC [2, 25] | MIC [2, 26] | MIC [5] | MIC [6] | MIC [7, 27] | MIC ([9]; C. albicans 2.4122, deep fungi) | MIC ([9]; C. albicans 90028, deep fungi) | MIC [11] | MIC ([11]; ATCC4438) | MIC [13] | MIC [14] | MIC ([14]; CBS113480) | MIC [18, 29] | MIC [18, 30] | MIC [20] | MIC [21] | MIC ([21]; CBS566094) | MIC [22] | other results
1 | CC[C@H]1OC(=O)C[C@@H](O)[C@H](C)[C@@H](O[C@@H]2O[C@H](C)[C@@H](O[C@H]3C[C@@](C)(O)[C@@H](O)[C@H](C)O3)[C@H](N(C)C)[C@H]2O)[C@@H](CC=O)C[C@@H](C)C(=O)/C=C/C(C)=C/[C@@H]1CO[C@@H]1O[C@H](C)[C@@H](O)[C@@H](OC)[C@H]1OC [Tylosin, tylosin] | 0.05 µg/mL (≈ 0.0546 µM) | 0.05 µg/mL (≈ 0.0546 µM) | 0.025 µg/mL (≈ 0.0273 µM) | 0.025 µg/mL (≈ 0.0273 µM) |  |  |  |  |  |  |  |  |  |  |  |  |  |  |  |  | 
2 | Cc1c(C(=O)/C=C/c2ccccc2)[n+]([O-])c2ccccc2[n+]1[O-] [QCT, quinocetone] | 16 µg/mL (≈ 52.2 µM) | 8 µg/mL (≈ 26.1 µM) | 16 µg/mL (≈ 52.2 µM) | 16 µg/mL (≈ 52.2 µM) | 64 µg/mL (≈ 209 µM) | 4 µg/mL (≈ 13.1 µM) | > 64 µg/mL | > 64 µg/mL | > 64 µg/mL | 32 µg/mL (≈ 104 µM) | 32 µg/mL (≈ 104 µM) | 64 µg/mL (≈ 209 µM) | 16 µg/mL (≈ 52.2 µM) | 8 µg/mL (≈ 26.1 µM) | 64 µg/mL (≈ 209 µM) | 64 µg/mL (≈ 209 µM) | 64 µg/mL (≈ 209 µM) | 32 µg/mL (≈ 104 µM) | 32 µg/mL (≈ 104 µM) | 4 µg/mL (≈ 13.1 µM) | IC50 ([3]; Inactivation): --; IC50 ([3]; Prevention): --; IC50 ([3]; Treatment): --; TC50 [4]: 8.90 ± 1.05 µg/mL (≈ 29.1 µM); MNTC [4]: 0.39 µg/mL; MIC [7, 28]: > 64 µg/mL; FIC [8]: 0.75; Combined effect [10]: additive (0.5 to 1, additive); TC50 [12]: 2.38 ± 0.27 µg/mL (≈ 7.77 µM); MNTC [12]: 0.2 µg/mL; TC50 [15]: 9.89 ± 1.08 µg/mL (≈ 32.3 µM); MNTC [15]: 0.25 µg/mL; MIC [16]: 8 to 16 µg/mL (≈ 26.1 to 52.2 µM); IC50 ([17]; Inactivation): --; IC50 ([17]; Prevention): --; IC50 ([17]; Treatment): --; IC50 ([19]; Inactivation): --; IC50 ([19]; Prevention): --; IC50 ([19]; Treatment): --
3 | CC(=O)c1c(C)[n+]([O-])c2ccccc2[n+]1[O-] [MEQ, mequindox] | 32 µg/mL (≈ 147 µM) | 16 µg/mL (≈ 73.3 µM) | 32 µg/mL (≈ 147 µM) | 16 µg/mL (≈ 73.3 µM) | 64 µg/mL (≈ 293 µM) | 8 µg/mL (≈ 36.7 µM) | 64 µg/mL (≈ 293 µM) | 32 µg/mL (≈ 147 µM) | 64 µg/mL (≈ 293 µM) | > 64 µg/mL | > 64 µg/mL | 32 µg/mL (≈ 147 µM) | > 64 µg/mL | > 64 µg/mL | > 64 µg/mL | > 64 µg/mL | 32 µg/mL (≈ 147 µM) | > 64 µg/mL | 64 µg/mL (≈ 293 µM) | 4 µg/mL (≈ 18.3 µM) | IC50 ([3]; Inactivation): --; IC50 ([3]; Prevention): --; IC50 ([3]; Treatment): --; TC50 [4]: 41.28 ± 1.28 µg/mL (≈ 189 µM); MNTC [4]: 1.0 µg/mL; MIC [7, 28]: > 64 µg/mL; FIC [8]: 0.75; Combined effect [10]: additive (0.5 to 1, additive); TC50 [12]: 17.86 ± 1.28 µg/mL (≈ 81.8 µM); MNTC [12]: 0.5 µg/mL; TC50 [15]: 40.01 ± 1.27 µg/mL (≈ 183 µM); MNTC [15]: 2.0 µg/mL; IC50 ([17]; Inactivation): --; IC50 ([17]; Prevention): --; IC50 ([17]; Treatment): --; IC50 ([19]; Inactivation): --; IC50 ([19]; Prevention): --; IC50 ([19]; Treatment): --; MIC [23]: 3.13 µg/mL (≈ 14.3 µM)
4 | CCN1CCN(c2cc3c(cc2F)c(=O)c(C(=O)O)cn3C2CC2)CC1 [Enrofloxacin, enrofloxacin] | 0.025 µg/mL (≈ 0.0696 µM) | 0.013 µg/mL (≈ 0.0362 µM) | 0.05 µg/mL (≈ 0.139 µM) | 0.025 µg/mL (≈ 0.0696 µM) |  |  |  |  |  |  |  |  |  |  |  |  |  |  |  |  | 
5 | CO[C@H]1/C=C/O[C@@]2(C)Oc3c(C)c(O)c4c(O)c(c(/C=N/N5CCN(C)CC5)c(O)c4c3C2=O)NC(=O)/C(C)=C\C=C\[C@H](C)[C@H](O)[C@@H](C)[C@@H](O)[C@@H](C)[C@H](OC(C)=O)[C@@H]1C [Rifampicin, rifampicin] |  |  |  |  |  | 0.025 µg/mL (≈ 0.0304 µM) |  |  |  |  |  |  |  |  |  |  | 1.6 µg/mL (≈ 1.94 µM) |  |  | 0.05 µg/mL (≈ 0.0608 µM) | 
6 | N#CCC(=O)N/N=C/c1c[n+]([O-])c2ccccc2[n+]1[O-] [CYA, cyadox] | 16 µg/mL (≈ 59 µM) | 32 µg/mL (≈ 118 µM) | 16 µg/mL (≈ 59 µM) | 16 µg/mL (≈ 59 µM) | 32 µg/mL (≈ 118 µM) | 8 µg/mL (≈ 29.5 µM) | 32 µg/mL (≈ 118 µM) | 32 µg/mL (≈ 118 µM) | 64 µg/mL (≈ 236 µM) | 32 µg/mL (≈ 118 µM) | 32 µg/mL (≈ 118 µM) | 16 µg/mL (≈ 59 µM) | 32 µg/mL (≈ 118 µM) | 16 µg/mL (≈ 59 µM) | 64 µg/mL (≈ 236 µM) | 32 µg/mL (≈ 118 µM) | 64 µg/mL (≈ 236 µM) | 32 µg/mL (≈ 118 µM) | 32 µg/mL (≈ 118 µM) | 4 µg/mL (≈ 14.7 µM) | IC50 ([3]; Inactivation): --; IC50 ([3]; Prevention): --; IC50 ([3]; Treatment): --; TC50 [4]: 16.92 ± 1.28 µg/mL (≈ 62.4 µM); MNTC [4]: 1.56 µg/mL; MIC [7, 28]: 32 µg/mL (≈ 118 µM); FIC [8]: 0.75; Combined effect [10]: additive (0.5 to 1, additive); TC50 [12]: 15.31 ± 1.23 µg/mL (≈ 56.4 µM); MNTC [12]: 1.2 µg/mL; TC50 [15]: 17.26 ± 1.27 µg/mL (≈ 63.6 µM); MNTC [15]: 1.0 µg/mL; IC50 ([17]; Inactivation): --; IC50 ([17]; Prevention): --; IC50 ([17]; Treatment): --; IC50 ([19]; Inactivation): --; IC50 ([19]; Prevention): --; IC50 ([19]; Treatment): --
7 | C[C@@H]1[C@H](O)[C@@H](C)/C=C/C=C/C=C/C=C/C=C/C=C/C=C/[C@H](O[C@@H]2O[C@H](C)[C@@H](O)[C@H](N)[C@@H]2O)C[C@@H]2O[C@](O)(C[C@@H](O)C[C@@H](O)[C@H](O)CC[C@@H](O)C[C@@H](O)CC(=O)O[C@H]1C)C[C@H](O)[C@H]2C(=O)O [AMB, amphotericin B] |  |  |  |  | 1 µg/mL (≈ 1.08 µM) |  | 2 µg/mL (≈ 2.16 µM) | 2 µg/mL (≈ 2.16 µM) | 1 µg/mL (≈ 1.08 µM) | 1 µg/mL (≈ 1.08 µM) | 1 µg/mL (≈ 1.08 µM) | 0.5 µg/mL (≈ 0.541 µM) | 1 µg/mL (≈ 1.08 µM) | 0.5 µg/mL (≈ 0.541 µM) | 0.5 µg/mL (≈ 0.541 µM) | 0.5 µg/mL (≈ 0.541 µM) |  | 0.5 µg/mL (≈ 0.541 µM) | 0.5 µg/mL (≈ 0.541 µM) |  | MIC [7, 28]: 2 µg/mL (≈ 2.16 µM)
8 | NNC(=O)c1ccncc1 [Isoniazid, isoniazid] |  |  |  |  |  | 0.025 µg/mL (≈ 0.182 µM) |  |  |  |  |  |  |  |  |  |  | 16 µg/mL (≈ 117 µM) |  |  | 0.025 µg/mL (≈ 0.182 µM) | 
9 | CC(=O)N1CCN(c2ccc(OCC3COC(Cn4ccnc4)(c4ccc(Cl)cc4Cl)O3)cc2)CC1 (centres unmarked) [KCZ, ketoconazole] |  |  |  |  | 0.125 µg/mL (≈ 0.235 µM) |  |  | 0.5 µg/mL (≈ 0.941 µM) | 0.25 µg/mL (≈ 0.47 µM) | 0.5 µg/mL (≈ 0.941 µM) | 0.5 µg/mL (≈ 0.941 µM) | 0.25 µg/mL (≈ 0.47 µM) | 0.5 µg/mL (≈ 0.941 µM) | 0.25 µg/mL (≈ 0.47 µM) | 0.25 µg/mL (≈ 0.47 µM) | 0.5 µg/mL (≈ 0.941 µM) |  | 0.25 µg/mL (≈ 0.47 µM) | 0.25 µg/mL (≈ 0.47 µM) |  | MIC ([7]; C. tropicalis 2.2735, deep fungi): 0.5 µg/mL (≈ 0.941 µM); MIC ([7]; Candida tropicalis): 0.5 µg/mL (≈ 0.941 µM)
